Data taken from PubChem BioAssay AID328 (DTP/NCI, 2004).
“And” between values parts separate entries of the source, which are not always exact repeats. Identical values can stand only once. Inconclusive results and toxic doses are left out. How the source made its calls: active means survival T/C of 150% or more; inactive means T/C below 125% in these data.

System: BDF1 mice, P388 leukemia ip, median survival T/C
Test: NCI In Vivo Anticancer Drug Screen. Data for tumor model P388 Leukemia (intraperitoneal) in B6D2F1 (BDF1) mice
Details: endpoint: median survival time, higher = longer survival
Summary of the method: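 Each value expresses how treatment altered survival: treated-mouse outcome over vehicle-mouse outcome, both groups bearing the transplanted tumour.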

[1] = dose: 50.0 mg/kg/injection, schedule: Q01DX009 (ip), vehicle: saline
[2] = dose: 100.0 mg/kg/injection, schedule: Q01DX009 (ip), vehicle: saline
[3] = dose: 100.0 mg/kg/injection, schedule: Q04DX003 (ip), vehicle: saline
[4] = dose: 200.0 mg/kg/injection, schedule: Q01DX009 (ip), vehicle: saline
[5] = dose: 200.0 mg/kg/injection, schedule: Q04DX003 (ip), vehicle: saline
[6] = dose: 400.0 mg/kg/injection, schedule: Q04DX003 (ip), vehicle: saline
[7] = dose: 100.0 mg/kg/injection, schedule: Q01DX009 (ip), vehicle: saline with Tween-80
[8] = dose: 200.0 mg/kg/injection, schedule: Q01DX009 (ip), vehicle: saline with Tween-80
[9] = dose: 400.0 mg/kg/injection, schedule: Q01DX009 (ip), vehicle: saline with Tween-80
[10] = dose: 200.0 mg/kg/injection, schedule: Q04DX003 (ip), vehicle: saline with Tween-80
[11] = dose: 400.0 mg/kg/injection, schedule: Q04DX003 (ip), vehicle: saline with Tween-80
[12] = dose: 400.0 mg/kg/injection, schedule: Q01DX009 (ip), vehicle: saline

Measured: T/C

O=Cc1c2ccc(Cl)cc2nc2ccc(Cl)cc12
inactive: dose: 100.0 mg/kg/injection, schedule: Q01DX001 (ip), vehicle: saline with Tween-80 100 % of control | dose: 200.0 mg/kg/injection, schedule: Q01DX001 (ip), vehicle: saline with Tween-80 100 % of control | dose: 400.0 mg/kg/injection, schedule: Q01DX001 (ip), vehicle: saline with Tween-80 100 % of control

CC(=O)Nc1ccc(C)c([N+](=O)[O-])c1
inactive: [1] 92 % of control | [2] 97 % of control | [3] 99 % of control | [4] 118 % of control | [5] 100 % of control | [6] 90 % of control

CCN1/C(=C/C(C)=C/c2sc3ccccc3[n+]2CC)Sc2ccccc21
inactive: dose: 25.0 micrograms/kg/injection, schedule: Q01DX009 (ip), vehicle: Klucel (hydroxypropylcellulose) (HPC) 116 % of control | dose: 50.0 micrograms/kg/injection, schedule: Q01DX009 (ip), vehicle: Klucel (hydroxypropylcellulose) (HPC) 109 % of control and 120 % of control | dose: 100.0 micrograms/kg/injection, schedule: Q01DX009 (ip), vehicle: Klucel (hydroxypropylcellulose) (HPC) 106 % of control and 108 % of control | dose: 200.0 micrograms/kg/injection, schedule: Q01DX009 (ip), vehicle: Klucel (hydroxypropylcellulose) (HPC) 97 % of control | dose: 400.0 micrograms/kg/injection, schedule: Q01DX009 (ip), vehicle: Klucel (hydroxypropylcellulose) (HPC) 106 % of control

CC(N)Cc1ccc(N(C)C)cc1F (stereo unspecified)
inactive: dose: 25.0 mg/kg/injection, schedule: Q01DX009 (ip), vehicle: saline with Tween-80 96 % of control | dose: 25.0 mg/kg/injection, schedule: Q01DX009 (ip), vehicle: saline 103 % of control | dose: 50.0 mg/kg/injection, schedule: Q01DX009 (ip), vehicle: saline with Tween-80 96 % of control | [1] 98 % of control and 107 % of control | [7] 107 % of control | [2] 96 % of control

Oc1ccc2ccccc2c1N=Nc1ccc(Cl)cc1
inactive: [7] 104 % of control | [8] 95 % of control | [9] 95 % of control

COc1ccc(C2(C(=O)O)CC2)cc1
inactive: [7] 111 % of control | dose: 100.0 mg/kg/injection, schedule: Q04DX003 (ip), vehicle: saline with Tween-80 109 % of control | [8] 100 % of control | [10] 109 % of control | [9] 96 % of control | [11] 113 % of control

COc1cc2c3cc1Oc1c(OC)c(OC)cc4c1C(Cc1ccc(OC(C)=O)c(c1)Oc1ccc(cc1)CC3N(C)CC2)N(C)CC4 (stereo unspecified)
inactive: dose: 12.5 mg/kg/injection, schedule: Q04DX003 (ip), vehicle: saline with Tween-80 100 % of control | dose: 25.0 mg/kg/injection, schedule: Q04DX003 (ip), vehicle: saline with Tween-80 109 % of control | dose: 50.0 mg/kg/injection, schedule: Q04DX003 (ip), vehicle: saline with Tween-80 100 % of control | [10] 95 % of control | [11] 90 % of control

OCC(CO)(CO)CBr
inactive: [2] 110 % of control | [3] 90 % of control | [4] 110 % of control | [5] 90 % of control | [12] 88 % of control | [6] 114 % of control

Cc1cc(=O)n(Cc2ccco2)c(=S)[nH]1
inactive: dose: 50.0 mg/kg/injection, schedule: Q01DX005 (ip), vehicle: saline with Tween-80 98 % of control | dose: 100.0 mg/kg/injection, schedule: Q01DX005 (ip), vehicle: saline with Tween-80 93 % of control

CC(=O)Nc1ccc2c(O)cc(S(=O)(=O)O)cc2c1
inactive: [2] 107 % of control | [4] 98 % of control | [12] 114 % of control

C=C1C(c2ccccc2)C(c2ccccc2)=C(C)C(c2ccccc2)=CN1C(=O)c1ccccc1 (stereo unspecified)
inactive: dose: 50.0 mg/kg/injection, schedule: Q01DX009 (ip), vehicle: Klucel (hydroxypropylcellulose) (HPC) 97 % of control | dose: 100.0 mg/kg/injection, schedule: Q01DX009 (ip), vehicle: Klucel (hydroxypropylcellulose) (HPC) 88 % of control | dose: 200.0 mg/kg/injection, schedule: Q01DX009 (ip), vehicle: Klucel (hydroxypropylcellulose) (HPC) 95 % of control

O=[N+]([O-])C1(Cl)CCCCC1
inactive: dose: 6.25 mg/kg/injection, schedule: Q01DX009 (ip), vehicle: Klucel (hydroxypropylcellulose) (HPC) 112 % of control | dose: 12.5 mg/kg/injection, schedule: Q01DX009 (ip), vehicle: Klucel (hydroxypropylcellulose) (HPC) 108 % of control | dose: 25.0 mg/kg/injection, schedule: Q01DX009 (ip), vehicle: Klucel (hydroxypropylcellulose) (HPC) 102 % of control and 105 % of control
